# Molecular target: T1, JNK1α1 (Homo sapiens, UniProt P45983)
# T1 construct: catalytic domain containing amino acids 1-364 and N-terminal hexahistidine tag; hexahistidine (His6) (N); made in house; host or cells: E. coli BL21 (DE3)
# Test: Coupled spectrophotometric (PK/LDH) JNK1α1 assay: % inhibition and Ki determination
# Format: biochemical
# Settings: JNK-1
# Summary of the method: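 Initial rates were taken from the absorbance decrease at 340 nm at 30° C. Ki was fitted with a tight-binding model over 11 concentrations (top 100 μM); single-point inhibition was tested at 1 or 10 μM.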
# T1 sequence (P45983 1-364): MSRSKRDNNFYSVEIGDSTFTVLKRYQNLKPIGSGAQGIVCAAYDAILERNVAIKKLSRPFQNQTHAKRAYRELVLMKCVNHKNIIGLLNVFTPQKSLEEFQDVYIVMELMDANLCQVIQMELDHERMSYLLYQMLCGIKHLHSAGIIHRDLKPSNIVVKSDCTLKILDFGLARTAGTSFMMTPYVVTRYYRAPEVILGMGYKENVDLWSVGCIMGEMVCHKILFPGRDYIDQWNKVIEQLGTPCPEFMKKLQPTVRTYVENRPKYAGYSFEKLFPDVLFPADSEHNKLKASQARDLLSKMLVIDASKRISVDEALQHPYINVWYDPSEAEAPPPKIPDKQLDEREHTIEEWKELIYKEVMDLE
row,SMILES,Ki
1,"CC(=O)N[C@H]1CC[C@H](Nc2ncc3cccc(C(=O)NCC(C)(C)O)c3n2)CC1 [Example 135, 2-{[trans-4-(acetylamino)cyclohexyl]amino}-N-(2-hydroxy-2-methylpropyl)quinazoline-8-carboxamide]",300 nM
2,c1ccc2nc(NC3CCCCC3)ncc2c1 [Example 147],460 nM
3,Fc1ccc2cnc(NC3CCCCC3)nc2c1 [Example 148],456 nM
4,"O[C@H]1CC[C@H](Nc2ncc3ccc(OCc4ccccn4)cc3n2)CC1 [Example 153, trans-4-{[7-(pyridin-2-ylmethoxy)quinazolin-2-yl]amino}cyclohexanol]",185 nM
5,"O[C@H]1CC[C@H](Nc2ncc3ccc(OCCN4CCOCC4)cc3n2)CC1 [Example 154, trans-4-{[7-(2-morpholin-4-ylethoxy)quinazolin-2-yl]amino}cyclohexanol]",403 nM
6,"O[C@H]1CC[C@H](Nc2ncc3ccc(OCC4CCOC4)cc3n2)CC1 (stereo partly drawn) [Example 155, trans-4-{[7-(tetrahydrofuran-3-ylmethoxy)quinazolin-2-yl]amino}cyclohexanol]",156 nM
7,"CN1CCC(COc2ccc3cnc(N[C@H]4CC[C@H](O)CC4)nc3c2)CC1 [Example 156, trans-4-({7-[(1-methylpiperidin-4-yl)methoxy]quinazolin-2-yl}amino)cyclohexanol]",988 nM
8,"O[C@H]1CC[C@H](Nc2ncc3ccc(OCC4CCOCC4)cc3n2)CC1 [Example 158, trans-4-{[7-(tetrahydro-2H-pyran-4-ylmethoxy)quinazolin-2-yl]amino}cyclohexanol]",201 nM
9,"O[C@H]1CC[C@H](Nc2ncc3ccc(O[C@@H]4CCOC4)cc3n2)CC1 [Example 159, trans-4-({7-[(3R)-tetrahydrofuran-3-yloxy]quinazolin-2-yl}amino)cyclohexanol]",190 nM
10,"c1cc2cnc(NC3CCOCC3)nc2cc1O[C@H]1CCOC1 [Example 163, 7-[(3S)-tetrahydrofuran-3-yloxy]-N-(tetrahydro-2H-pyran-4-yl)quinazolin-2-amine]",1740 nM
11,"CC(=O)N[C@H]1CC[C@H](Nc2ncc3ccc(OC4CCOC4)cc3n2)CC1 (stereo partly drawn) [Example 164, N-(trans-4-{[7-(tetrahydrofuran-3-yloxy)quinazolin-2-yl]amino}cyclohexyl)acetamide]",416 nM
12,"O=S(=O)(N[C@H]1CC[C@H](Nc2ncc3ccc(OC4CCOC4)cc3n2)CC1)c1ccccc1 (stereo partly drawn) [Example 165, N-(trans-4-{[7-(tetrahydrofuran-3-yloxy)quinazolin-2-yl]amino}cyclohexyl)benzenesulfonamide]",153 nM
13,"O[C@H]1CC[C@H](Nc2ncc3cccc(OCC4CCCCO4)c3n2)CC1 (stereo partly drawn) [Example 166, trans-4-{[8-(tetrahydro-2H-pyran-2-ylmethoxy)quinazolin-2-yl]amino}cyclohexanol]",296 nM
14,"O[C@H]1CC[C@H](Nc2ncc3cccc(O[C@@H]4CCOC4)c3n2)CC1 [Example 167, trans-4-({8-[(3R)-tetrahydrofuran-3-yloxy]quinazolin-2-yl}amino)cyclohexanol]",644 nM
15,"O[C@H]1CC[C@H](Nc2ncc3cccc(O[C@H]4CCOC4)c3n2)CC1 [Example 168, trans-4-({8-[(3S)-tetrahydrofuran-3-yloxy]quinazolin-2-yl}amino)cyclohexanol]",574 nM
16,"O[C@H]1CC[C@H](Nc2ncc3cccc(OC4CCOCC4)c3n2)CC1 [Example 169, trans-4-{[8-(tetrahydro-2H-pyran-4-yloxy)quinazolin-2-yl]amino}cyclohexanol]",231 nM
17,"CC(C)Nc1ncc2cccc(OC3CCOCC3)c2n1 [Example 170, N-isopropyl-8-(tetrahydro-2H-pyran-4-yloxy)quinazolin-2-amine]",2150 nM
18,"O[C@H]1CC[C@H](Nc2ncc3cccc(OC4CCOC4)c3n2)CC1 (stereo partly drawn) [Example 171, trans-4-{[8-(tetrahydrofuran-3-yloxy)quinazolin-2-yl]amino}cyclohexanol]",483 nM
19,"CC(C)Nc1ncc2cccc(OC3CCOC3)c2n1 (stereo not drawn) [Example 172, N-isopropyl-8-(tetrahydrofuran-3-yloxy)quinazolin-2-amine]",3570 nM
20,"c1cc(OC2CCOC2)c2nc(NC3CCOCC3)ncc2c1 (stereo not drawn) [Example 173, 8-(tetrahydrofuran-3-yloxy)-N-(tetrahydro-2H-pyran-4-yl)quinazolin-2-amine]",1910 nM
21,"FC1(F)CCC(Nc2ncc3cccc(OC4CCOC4)c3n2)CC1 (stereo not drawn) [Example 174, N-(4,4-difluorocyclohexyl)-8-(tetrahydrofuran-3-yloxy)quinazolin-2-amine]",999 nM
22,"c1cc(OC2CCOCC2)c2nc(NC3CCOCC3)ncc2c1 [Example 175, N-(tetrahydro-2H-pyran-4-yl)-8-(tetrahydro-2H-pyran-4-yloxy)quinazolin-2-amine]",880 nM
23,"FC1(F)CCC(Nc2ncc3cccc(OC4CCOCC4)c3n2)CC1 [Example 176, N-(4,4-difluorocyclohexyl)-8-(tetrahydro-2H-pyran-4-yloxy)quinazolin-2-amine]",422 nM
24,"N[C@H]1CC[C@H](Nc2ncc3cccc(OC4CCOC4)c3n2)CC1 (stereo partly drawn) [Example 177, trans-N-[8-(tetrahydrofuran-3-yloxy)quinazolin-2-yl]cyclohexane-1,4-diamine]",914 nM

# Further compounds by falling Ki, results first:
row,Ki,SMILES
1,1780 nM,"CN(C)CCOc1ccc2cnc(N[C@H]3CC[C@H](O)CC3)nc2c1 [Example 157, trans-4-({7-[2-(dimethylamino)ethoxy]quinazolin-2-yl}amino)cyclohexanol]"
2,485 nM,COc1cccc2cnc(NC3CCCCC3)nc12 [Example 149]
3,432 nM,"O[C@H]1CC[C@H](Nc2ncc3ccccc3n2)CC1 [Example 151, trans-4-(quinazolin-2-ylamino)cyclohexanol]"
4,420 nM,"Oc1cccc2cnc(N[C@H]3CC[C@H](O)CC3)nc12 [Example 152, 2-[(trans-4-hydroxycyclohexyl)amino]quinazolin-8-ol]"
5,359 nM,COc1cccc2cnc(N[C@H]3CC[C@H](O)CC3)nc12 [Example 150]
6,337 nM,"O[C@H]1CC[C@H](Nc2ncc3ccc(F)cc3n2)CC1 [Example 143, trans-4-[(7-fluoroquinazolin-2-yl)amino]cyclohexanol]"
7,260 nM,"CS(=O)(=O)N[C@H]1CC[C@H](Nc2ncc3ccc(OC4CCOC4)cc3n2)CC1 (stereo partly drawn) [Example 162, N-(trans-4-{[7-(tetrahydrofuran-3-yloxy)quinazolin-2-yl]amino}cyclohexyl)methanesulfonamide]"
8,178 nM,"Oc1ccc2cnc(N[C@H]3CC[C@H](O)CC3)nc2c1 [Example 146, 2-[(trans-4-hydroxycyclohexyl)amino]quinazolin-7-ol]"
9,127 nM,"O[C@H]1CC[C@H](Nc2ncc3ccc(OC4CCOC4)cc3n2)CC1 (stereo partly drawn) [Example 144, trans-4-{[7-(tetrahydrofuran-3-yloxy)quinazolin-2-yl]amino}cyclohexanol]"
10,123 nM,"COc1ccc2cnc(N[C@H]3CC[C@H](O)CC3)nc2c1 [Example 145, trans-4-[(7-methoxyquinazolin-2-yl)amino]cyclohexanol]"
11,111 nM,"O[C@H]1CC[C@H](Nc2ncc3ccc(Oc4ccccc4)cc3n2)CC1 [Example 161, trans-4-[(7-phenoxyquinazolin-2-yl)amino]cyclohexanol]"
12,70 nM,"O[C@H]1CC[C@H](Nc2ncc3ccc(O[C@H]4CCOC4)cc3n2)CC1 [Example 160, trans-4-({7-[(3S)-tetrahydrofuran-3-yloxy]quinazolin-2-yl}amino)cyclohexanol]"
